Measurements published in patent US7238716B2, “Alkanoic acid derivatives process for their production and use thereof” (Takeda Pharmaceuticals Company Limited, priority 2000, dated 2007).
Where two headings read alike, the source gives them in different places.

What was measured:
PPARγ-RXRα heterodimer = molecular target: T1, PPARγ-RXRα heterodimer (Homo sapiens, UniProt P37231); assay: PPARγ-RXRα heterodimer ligand activity, luciferase reporter in PPARγ:RXRα:4ERPP/CHO-K1 cells (Test Example 3); type: cell-based; settings: concentration for 50% of the maximum fold induction of luciferase activity; 48 hours, CHO-K1 cells
T1 construct: expressed in transfected cells; host or cells: CHO-K1
T1 sequence (P37231 1-477 isoform P37231-2): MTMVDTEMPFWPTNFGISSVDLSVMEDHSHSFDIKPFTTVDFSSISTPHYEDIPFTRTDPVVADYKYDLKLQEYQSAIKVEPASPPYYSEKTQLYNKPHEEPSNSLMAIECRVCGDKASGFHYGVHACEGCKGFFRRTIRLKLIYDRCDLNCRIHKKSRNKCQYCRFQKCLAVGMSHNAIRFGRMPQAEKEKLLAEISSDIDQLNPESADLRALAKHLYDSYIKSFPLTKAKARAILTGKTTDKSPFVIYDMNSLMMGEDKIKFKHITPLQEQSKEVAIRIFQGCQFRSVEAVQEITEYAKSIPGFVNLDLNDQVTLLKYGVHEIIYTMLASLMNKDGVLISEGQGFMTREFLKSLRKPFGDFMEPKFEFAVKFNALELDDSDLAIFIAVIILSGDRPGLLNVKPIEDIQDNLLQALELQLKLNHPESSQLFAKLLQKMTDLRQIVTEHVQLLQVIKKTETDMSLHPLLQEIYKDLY
T1 sequence (P19793 1-462 partner): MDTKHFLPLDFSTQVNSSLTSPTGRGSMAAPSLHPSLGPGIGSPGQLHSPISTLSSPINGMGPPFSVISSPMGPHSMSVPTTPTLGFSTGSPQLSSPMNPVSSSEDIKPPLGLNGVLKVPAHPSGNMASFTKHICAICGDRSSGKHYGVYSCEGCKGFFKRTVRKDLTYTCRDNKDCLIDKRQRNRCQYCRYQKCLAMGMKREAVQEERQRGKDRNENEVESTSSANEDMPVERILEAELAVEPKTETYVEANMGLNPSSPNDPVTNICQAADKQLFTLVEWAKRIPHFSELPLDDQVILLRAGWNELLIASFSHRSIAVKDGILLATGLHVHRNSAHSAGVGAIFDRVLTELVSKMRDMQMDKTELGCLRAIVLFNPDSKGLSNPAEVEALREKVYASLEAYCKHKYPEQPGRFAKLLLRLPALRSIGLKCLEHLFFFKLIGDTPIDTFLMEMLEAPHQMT
Procedure: A PPARγ:RXRα:4ERPP/CHO-K1 cells obtained in Reference Example 5 described later were cultured in HAM F12 medium (produced by NISSUI SEIYAKU) containing 10% Fetal bovine serum (produced by Life Technologies, Inc., USA) and then inoculated to a 96-well white plate (produced by Corning Costar Corporation, USA) at the density of 2×10^4 cells/well, and cultured in a CO2 gas incubator at 37° C. overnight.
After washing the 96 well white plate with PBS (Phosphate-buffered saline), 90 μl of HAM F12 medium containing 0.1% fatty acid-free bovine serum albumin (BSA) and 10 μl of test compound were added, which was cultured in a CO2 gas incubator at 37° C. for 48 hours. After removing the medium, 40 μl of PIKKAGENE 7.5 (produced by Wako Pure Chemical Industries, Ltd.) was added. After stirring, the luciferase activity was determined using Lumistar (produced by BMG Labtechnologies GmbH, Germany).
A fold induction was calculated based on the luciferase activity of each test compound by taking the luciferase activity in the test compound non administration group as 1. The values of the test compound, concentration and the fold induction were analyzed using PRISM 2.01 (produced by GraphPad Software Inc. USA) to calculate the EC50 values, the effective concentration of a test compound for 50% of the maximum fold induction.
After a CHO-K1 cell cultured in a 750 ml tissue culture flask (produced by Corning-Costar Corporation, USA) containing HAM F12 medium (produced by NISSUI SEIYAKU) supplemented with 10% Fetal Bovine Serum (produced by Life Technologies, Inc., USA) was scraped by treating with 0.5 g/L trypsin-0.2 g/L EDTA (ethylenediaminetetraacetic acid) (produced by Life Technologies, Inc., USA), the cell was washed with PBS (phosphate buffered saline) (produced by Life Technologies, Inc., USA), centrifuged (1000 rpm, 5 minutes), and then suspended in PBS. Subsequently, a DNA was introduced into the cell under the condition shown below using GENE PULSER (produced by Bio-Rad Laboratories, USA).
Namely, to a cuvette having a 0.4 cm gap, added were 8×10^6 cells and 10 μg of plasmid pVgRXR2-hPPARγ obtained in Reference Example 3 and 10 μg of reporter plasmid pGL3-4ERPP-TK neo obtained in Reference Example 4, which was subjected to electroporation at the voltage of 0.25 kV under the capacitance of 960 μF. Subsequently, the cell was transferred into a HAM F12 medium containing 10% Fetal Bovine. Serum and cultured for 24 hours. Then the cell was scraped again and centrifuged, and then suspended in HAM F12 medium containing 10% Fetal Bovine Serum supplemented with 500 μg/ml of GENETICIN (produced by Life Technologies, Inc., USA) and 250 μg/ml of ZEOCIN (produced by Invitrogen, USA). The suspension was diluted to the density of 10^4 cells/ml, and inoculated to a 96-well plate (produced by Corning Costar Corporation, USA), which was cultured in a CO2 gas incubator at 37° C., whereby obtaining a GENETICIN- and ZEOCIN-resistant transformant.
Subsequently, after the transformant cell line thus obtained was cultured in a 24-well plate (produced by Corning Costar Corporation, USA), selected was a cell line, PPARγ:RXRα:4ERPP/CHO-K1 cell, in which the luciferase was expressed and induced by addition of 10 μM pioglitazone hydrochloride.

KKAY mice = assay: Hypoglycemic and hypolipidemic actions in mice (Test Example 1); type: in vivo; settings: Mus musculus, po, 96 h, four days; for inhibition in vivo at 0.005 %: 0.005% in powdery diet; for inhibition in vivo at 0.01 %: 0.01% in powdery diet
Description: Test compounds were mixed in a powdery diet (CE-2, Japan Clea) at the concentration of 0.01% (compounds of Examples 7, 26, 29, 32) or 0.005% (compounds of Examples 1, 11, 15, 18, 24, 36, 37, 41, 48, 50, 51, 52, 58, 62, 79, 83, 88, 90, 91, 92, 93, 97, 107, 110, 115, 119, 122, 125, 129 and 130), and freely given to KKAY mice (11 to 12 weeks old, 5 mice in a group), a model of type 2 diabetes mellitus, for four days. During this period, water was given freely. Blood was sampled from orbital venous plexus, and glucose and triglyceride levels in plasma separated from blood were determined enzymatically using L type Wako Glu2 (Wako Pure Chemical Industries, Ltd.) or L type Wako TG.H (Wako Pure Chemical Industries, Ltd.), respectively.
In the Table, “hypoglycemic action (%)” means a percent reduction (%) of the glucose level in the test compound administration group when that of the test compound non-administration group is taken as 100%. In addition, the “hypolipidemic action (%)” means a percent reduction (%) of the triglyceride level in the test compound administration group when that of the test compound non-administration group is taken as 100%.

[1] = percent reduction of plasma glucose level vs non-administration group, read-out: hypoglycemic action (%)
[2] = percent reduction of plasma triglyceride level vs non-administration group, read-out: hypolipidemic action (%)

SMILES	EC50 (PPARγ-RXRα heterodimer) [µM]	melting point	inhibition in vivo at 0.005 % (KKAY mice; [1]) [%]	inhibition in vivo at 0.005 % (KKAY mice; [2]) [%]	inhibition in vivo at 0.01 % (KKAY mice; [1]) [%]	inhibition in vivo at 0.01 % (KKAY mice; [2]) [%]
Cc1oc(-c2ccccc2)nc1COc1ccc(COc2cccc(CC(=O)O)c2)cc1 [Example 1, 2-[3-[4-[(5-methyl-2-phenyl-4-oxazolyl)methoxy]benzyloxy]phenyl]acetic acid]	0.29	159 to 160 °C	21	33		
CCOc1ccc(OCc2ccc(OCc3nc(-c4ccccc4)oc3C)cc2)cc1CCC(=O)O [Example 7, 3-[2-ethoxy-5-[4-[(5-methyl-2-phenyl-4-oxazolyl)methoxy]benzyloxy]phenyl]propionic acid]	0.036	129 to 130 °C			48	62
Cc1oc(-c2ccccc2)nc1COc1ccc(COc2ccccc2CC(=O)O)cc1 [Example 11, 2-[2-[4-[(5-methyl-2-phenyl-4-oxazolyl)methoxy]benzyloxy]phenyl]acetic acid]	0.062	153 to 154 °C	56	84		
Cc1ccc(OCc2ccc(OCc3nc(-c4ccccc4)oc3C)cc2)c(CC(=O)O)c1 [Example 15, 2-[5-methyl-2-[4-[(5-methyl-2-phenyl-4-oxazolyl)methoxy]benzyloxy]phenyl]acetic acid]	0.2	115 to 116 °C	49	60		
Cc1oc(-c2ccccc2)nc1COc1ccc(COc2ccc(Cl)cc2CC(=O)O)cc1 [Example 18, 2-[5-chloro-2-[4-[(5-methyl-2-phenyl-4-oxazolyl)methoxy]benzyloxy]phenyl]acetic acid]	2.9	160 to 161 °C	41	34		
COc1ccc(OCc2ccc(OCc3nc(-c4ccccc4)oc3C)cc2)c(CC(=O)O)c1 [Example 24, 2-[5-methoxy-2-[4-[(5-methyl-2-phenyl-4-oxazolyl)methoxy]benzyloxy]phenyl]acetic acid]	0.16	134 to 136 °C	49	67		
CCOc1ccc(OCc2ccc(OCc3nc(-c4ccccc4)oc3C)cc2)c(CC(=O)O)c1 [Example 26, 2-[5-ethoxy-2-[4-[(5-methyl-2-phenyl-4-oxazolyl)methoxy]benzyloxy]phenyl]acetic acid]	0.035	122 to 123 °C			53	88
CCOc1ccc(OCc2ccc(OCc3nc(-c4ccccc4)oc3C)cc2)c(CCC(=O)O)c1 [Example 29, 3-[5-ethoxy-2-[4-[(5-methyl-2-phenyl-4-oxazolyl)methoxy]benzyloxy]phenyl]propionic acid]	0.025	115 to 116 °C			58	67

Second part, led by results:

EC50 (PPARγ-RXRα heterodimer) [µM]	melting point	SMILES	inhibition in vivo at 0.005 % (KKAY mice; [1]) [%]	inhibition in vivo at 0.005 % (KKAY mice; [2]) [%]	inhibition in vivo at 0.01 % (KKAY mice; [1]) [%]	inhibition in vivo at 0.01 % (KKAY mice; [2]) [%]
0.077	101 to 102 °C	Cc1oc(-c2ccccc2)nc1COc1cccc(COc2cccc(CC(=O)O)c2)c1 [Example 32, 2-[[3-[3-(5-methyl-2-phenyl-4-oxazolyl)methoxy]benzyloxy]phenyl]acetic acid]			40	53
0.033	144 to 145 °C	Cc1oc(-c2ccccc2)nc1COc1ccc(COc2ncccc2CC(=O)O)cc1 [Example 36, 2-[2-[4-[(5-methyl-2-phenyl-4-oxazolyl)methoxy]benzyloxy]-3-pyridyl]acetic acid]	55	71		
0.61	115 to 116 °C (dec.)	Cc1oc(-c2ccccc2)nc1COc1ccc(COc2cccnc2CC(=O)O)cc1 [Example 37, 2-[3-[4-[(5-methyl-2-phenyl-4-oxazolyl)methoxy]benzyloxy]-2-pyridyl]acetic acid]	50	61		
0.015	123 to 125 °C	Cc1oc(-c2ccccc2)nc1COc1ccc(COc2ccccc2CC(=O)O)cn1 [Example 41, 2-[2-[[6-[(5-methyl-2-phenyl-4-oxazolyl)methoxy]-3-pyridyl]methoxy]phenyl]acetic acid]	48	93		
0.018	165 to 166 °C	COc1cc(COc2ccccc2CC(=O)O)ccc1OCc1nc(-c2ccccc2)oc1C [Example 48, 2-[2-[3-methoxy-4-[(2-phenyl-5-methyl-4-oxazolyl)methoxy]benzyloxy]phenyl]acetic acid]	53	50		
0.18	167 to 168 °C	Cc1oc(-c2ccco2)nc1COc1ccc(COc2ccccc2CC(=O)O)cc1 [Example 50, 2-[2-[4-[[2-(2-furyl)-5-methyl-4-oxazolyl]methoxy]benzyloxy]phenyl]acetic acid]	54	77		
